Reference: EP0421419A2, “Tocotrienols in the treatment of hypercholesterolemia, hyperlipidemia and thromboembolic disorders” (Bristol-Myers Squibb Company, priority 1989, dated 1991)
Converted amounts (≈) assume the structure as drawn. Like-named read-outs stand apart in the source and are kept apart here.

Tests used:
[1] = test system: Cholesterol Synthesis in Isolated Rat Hepatocytes; test: Rat hepatocyte cholesterol biosynthesis model (14C-acetate incorporation into digitonin-precipitable sterols); assay type: cell-based; settings: for inhibition at 125 µg/mL / inhibition at 250 µg/mL / inhibition at 500 µg/mL / IC50: Rattus norvegicus, Hepatocyte, 45 min preincubation, 30 min incorporation
Description: Primary rat parenchymal hepatocytes were prepared from male Wistar rats (180-220 g) at mid-dark in the diurnal cycle by standard collagenase perfusion method as described previously. Ingebritsen et al. J. Biol. Chem., 254: 9986-9989, (1979). Aliquots of cells were suspended (100 mg in 2 ml) in Eagle's minimum essential medium (MEM) supplemented with 2% bovine albumin, and preincubated in a shaking water bath at about 37° under 95% O₂/5% CO₂ with compounds added as given in the data. […] Following a preincubation of about 15 to about 45 minutes as indicated, cholesterol synthesis in intact cells was assayed by 2-14C-acetate (1.8 mCi/mmol, 0.5 µCi/ml) incorporation for about 30 to about 60 minutes (previously shown to be time-linear) into total digitonin-precipitable sterols. […] Percent inhibition was calculated from the average of duplicates vs. triplicate vehicle controls conducted simultaneously.
The primary rat hepatocyte assay for cholesterol bio-synthesis inhibition was conducted as described in Example 2 except the preincubation was about 45 minutes and the 14C-acetate incorporation was about 30 minutes. The indicated compounds were purified from the same natural product source as the mixture used in Example 2. […] Two-component mixtures of the constituents separated from the tocotrienol mixture were tested under the conditions indentical to Table 2A.

HMG-CoA reductase [2] = test: HepG2 cell culture model, HMG-CoA reductase suppression assay; assay type: cell-based, human; settings: 10 µM, about 4 hours, HepG2 cells
Description: HMG-CoA reductase suppression in HepG2 cells was conducted by growing cells in RPMT-1640 plus 10% FBS on 100 mm plates, and when cells reached approximately 75% confluency, inducing with LDS (as described above) for about 16 hours prior to assays. Compounds were added using dimethylsulfoxide vehicle (0.5% v/v, final) and after about 4 hours of incubation at 37°, cells were harvested by scraping. Cell pellets were rinsed and lysed by sonication in 1.7 ml cold 50 mM imidazole-HCL, pH 7.2, 50 mM NaCl, 10 mM EDTA, 10 mM EGTA, 5 mM DTT, and 40µM leupeptin). Lysates were centriguged at 150 x g and the supernatant was centrifuged at 100,000 x g in a Beckman airfuge to isolate the post-nuclear total membrane fraction. The membranes were resuspended in 50 mM imidazole-HCl, pH 7.2, 250 mM NaCl, 5 mM DTT, and 20µM leupeptin and used for the assay of HMG-CoA reductase activity by the radiochemical procedure as described previously by Parker et al., J. Biol. Chem., 264: 4877-4887, (1989). Values were normalized for protein content by the Lowry method as cited previously (ibid). HMG-CoA reductase percent suppression was calculated as the decrease in specific activity of HMG-CoA reductase for treated cells vs. controls receiving vehicle. Averages of duplicate cell determinations assayed in duplicate were taken.
The human hepatoma HepG2 cell culture model was employed to compare the intrinsic activities of the tocotrienols. HepG2 cells were incubated with the indicated compounds for about 4 hours at 10 µM. Cholestrol synthesis was assayed by 14C-acetate incorporation and HMG-CoA reductase suppression was assayed in the isolated microsomal fraction. Cholesterol synthesis inhibition was assayed by 14C-acetate incorporation after preincubation of HepG2 cells with the compounds for about 2 hours or about 4 hours (Example IV). […] As the data in Figure 1 indicate, gamma-tocotrienol has an even greater relative potency compared to alpha-tocotrienol in the HepG2 cell model than in rat hepatocytes. The IC50s from these studies are given in Table 3, in which it can be seen that the intrinsic potency of gamma-tocotrienol is over 30-fold greater than that of alpha-tocotrienol.
The mechanism of cholesterol synthesis inhibition by tocotrienols involves down regulation of the limiting enzyme of sterol synthesis, HMG-CoA reductase. […] The suppression of HMG-CoA reductase protein expression by gamma-tocotrienol and delta-tocotrienol in HepG2 cells and in rat liver has been confirmed by immunoassy using the Western blot technique (data not shown).

Lipid Metabolism [3] = test: Lipid metabolism in normocholesterolemic chickens fed compound in diet; assay type: in vivo; settings: 20 ppm in corn control diet, 4 weeks; for HDL/LDL: control 1.413; for LDL-Cholesterol: control 76.0(±5.3); for HDL-Cholesterol: control 107.4(±7.0); for Serum Triglycerides: control 115.2(±13); for Serum Cholesterol: control 197.0(±5.2)
Description: (§1) Natural gamma-tocotrienol and delta-tocotrienol were evaluated for their hypocholesterolemic action in normocholesterolemic chickens and genetically hypercholesterolemic swine. Newborn male chicks (10 for each group) were raised on a standard corn-soybean-based control diet for two weeks and then were switched to either control or experimental diets for four weeks. Drug treatment consisted of the addition of gamma-tocotrienol or delta-tocotrienol to the corn-soybean-based diet at a concentration of 20 ppm. At the end of the feeding period, all the birds were fasted (about 36 hours) and refed (about 48 hours) to induce cholesterolgenic emzymes prior to sacrifice. The specific activity of HMG-CoA reductase, total serum cholesterol levels, HDL/LDL cholesterol pools, and serum triglyceride levels were examined (Table 5).
Similarly, synthetic gamma-tocotrienol was administered to male chicks at 50 ppm using the same protocol except HMG-CoA reductase levels were not determined.

HMG-CoA reductase [4] = test: HMG-CoA reductase specific activity in chickens fed compound in diet; assay type: in vivo; settings: 20 ppm in corn control diet, 4 weeks; for HMG-CoA Reductase Specific Acticity: 6-week old male chickens, control 1086.9(±114.0)
Description: as §1

Lipid Metabolism [5] = test: Lipid metabolism in genetically hypercholesterolemic swine fed compound in diet; assay type: in vivo; settings: 4 weeks; for Serum Cholesterol: 75 ppm in corn-soybean meal control diet, control 406.7(±12.8); for HDL-Cholesterol [% of Control] / LDL-Cholesterol [% of Control] / Serum Cholesterol [% of Control] / Serum Triglycerides [% of Control] / HDL/LDL / HDL-Cholesterol / Serum Triglycerides / LDL-Cholesterol: 75 ppm in diet; for HDL/LDL: control 0.078; for HDL-Cholesterol: control 28.8(±1.1); for Serum Triglycerides: control 67.9(±2.8); for LDL-Cholesterol: control 367.1(±15.7)
Source text: Genetically hypercholesterolemic swine (3 per group) were fed for four weeks on either a standard corn-soybean-based control diet or an experimental diet. The experimental diet consisted of the standard mix containing either gamma-tocotrienol or delta-tocotrienol at 75 ppm. The same protocol used for the chicken study was used for the swine group, except HMG-CoA reductase levels were not determined in this case. […] The HDL/LDL atherogenic index as before improved dramatically with drug treatment (Table 7).

| SMILES | % Suppression HMG-CoA Reductase (HMG-CoA reductase [2]) [%] | HDL-Cholesterol [% of Control] (Lipid Metabolism [3]) [%] | LDL-Cholesterol [% of Control] (Lipid Metabolism [3]) [%] | Serum Cholesterol [% of Control] (Lipid Metabolism [3]) [%] | Serum Triglycerides [% of Control] (Lipid Metabolism [3]) [%] | HDL/LDL (Lipid Metabolism [3]) | LDL-Cholesterol (Lipid Metabolism [3]) | HDL-Cholesterol (Lipid Metabolism [3]) | Serum Triglycerides (Lipid Metabolism [3]) | Serum Cholesterol (Lipid Metabolism [3]) | HMG-CoA Reductase Specific Acticity [% of Control] (HMG-CoA reductase [4]) [%] | HMG-CoA Reductase Specific Acticity (HMG-CoA reductase [4]) | Serum Cholesterol (Lipid Metabolism [5]) | HDL-Cholesterol [% of Control] (Lipid Metabolism [5]) [%] | LDL-Cholesterol [% of Control] (Lipid Metabolism [5]) [%] | Serum Cholesterol [% of Control] (Lipid Metabolism [5]) [%] | Serum Triglycerides [% of Control] (Lipid Metabolism [5]) [%] | HDL/LDL (Lipid Metabolism [5]) | HDL-Cholesterol (Lipid Metabolism [5]) | Serum Triglycerides (Lipid Metabolism [5]) | other results |
| --- | --- | --- | --- | --- | --- | --- | --- | --- | --- | --- | --- | --- | --- | --- | --- | --- | --- | --- | --- | --- | --- |
| CC(C)=CCC/C(C)=C/CC/C(C)=C/CC[C@]1(C)CCc2cc(O)c(C)c(C)c2O1 [d-γ-tocotrienol] | 64 | 95.3 | 56.7 | 76.4 | 82.8 | 1.669 | 43.1(±8.3) mg/dl | 102.3(±4.5) mg/dl | 95.4(±5.9) mg/dl | 150.5(±4.2) mg/dl | 45.5 | 494.2(±22.9) | 212.8(±9.0) mg/dl | 104.5 | 46.0 | 51.3 | 76.4 | 0.172 | 29.8(±2.9) mg/dl | 50.9(±3.1) mg/dl | inhibition at 125 µg/mL ([1]; read-out: % Inhibition at µg/ml conc: 125, 125 µg/ml, Expt. # 2): 28%; inhibition at 250 µg/mL ([1]; read-out: % Inhibition at µg/ml conc: 250, 250 µg/ml, Expt. # 1): 48%; inhibition at 250 µg/mL ([1]; read-out: % Inhibition at µg/ml conc: 250, 250 µg/ml, Expt. # 2): 34%; inhibition at 500 µg/mL ([1]; read-out: % Inhibition at µg/ml conc: 500, 500 µg/ml, Expt. # 1): 60%; inhibition at 500 µg/mL ([1]; read-out: % Inhibition at µg/ml conc: 500, 500 µg/ml, Expt. # 2): 61%; IC50 ([1]; read-out: IC₅₀, Expt. # 1): 270 µg/mL (≈ 658 µM); IC50 ([1]; read-out: IC₅₀, Expt. # 2): 360 µg/mL (≈ 877 µM); LDL-Cholesterol (Lipid Metabolism [5]): 172.8(±7.1) mg/dl |
| CC(C)=CCC/C(C)=C/CC/C(C)=C/CC[C@]1(C)CCc2cc(O)cc(C)c2O1 [d-δ-tocotrienol] | 65 | 91.9 | 53.7 | 71.5 | 77.0 | 2.419 | 40.8(±6.6) mg/dl | 98.7(±8.4) mg/dl | 88.7(±7.3) mg/dl | 140.9(±3.1) mg/dl | 50.6 | 550.2(±33.8) | 214.9(±18.6 mg/dl | 105.3 | 44.8 | 47.7 | 70.3 | 0.189 | 34.4(±1.9) mg/dl | 44.4(±1.3) mg/dl | inhibition at 125 µg/mL ([1]; 125 µg/ml, Expt. # 2, read-out: % Inhibition at µg/ml conc: 125): 26%; inhibition at 250 µg/mL ([1]; 250 µg/ml, Expt. # 1, read-out: % Inhibition at µg/ml conc: 250): 49%; inhibition at 250 µg/mL ([1]; 250 µg/ml, Expt. # 2, read-out: % Inhibition at µg/ml conc: 250): 33%; inhibition at 500 µg/mL ([1]; 500 µg/ml, Expt. # 1, read-out: % Inhibition at µg/ml conc: 500): 62%; inhibition at 500 µg/mL ([1]; 500 µg/ml, Expt. # 2, read-out: % Inhibition at µg/ml conc: 500): 63%; IC50 ([1]; Expt. # 1, read-out: IC₅₀): 260 µg/mL (≈ 656 µM); IC50 ([1]; Expt. # 2, read-out: IC₅₀): 340 µg/mL (≈ 857 µM); times more active than alpha-tocotrienol ([1]; rat and chicken hepatocyte system): at least 5 times; LDL-Cholesterol (Lipid Metabolism [5]): 182.2(±8.2) mg/dl |
